Experimental data: ChEMBL document CHEMBL1201862, “PubChem BioAssay data set” (2004)
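Tested at 5 concentrations; 48 h exposure; 96-well plates; endpoints linearly interpolated, else capped at highest concentration. GI50 marks 50% less growth.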 Active and inactive are the calls of the source. Cut-off read from the data, not from the text of the source: active = GI50 up to about 1.1 µM and inactive = higher.

Assays:
Assay in all cases: NCI-60 cell line screen, 48 h
[1] = tested on: EKVX
[2] = tested on: UACC-257
[3] = tested on: LOX IMVI
[4] = tested on: SF-295
[5] = tested on: Malme-3M
[6] = tested on: UACC-62
[7] = tested on: SF-268
[8] = tested on: A549
[9] = tested on: MOLT-4
[10] = tested on: SW-620
[11] = tested on: CAKI-1
[12] = tested on: MDA-MB-435
[13] = tested on: UO-31
[14] = tested on: ACHN
[15] = tested on: NCI-H522
[16] = tested on: OVCAR-5
[17] = tested on: NCI-H226
[18] = tested on: SF-539

Measured: GI50

Fc1ccc(-c2sc(-c3ccsc3)cc2Cc2ccsc2)cc1
inactive: [1] > 10 µM | [2] > 10 µM | [3] > 10 µM | [4] > 10 µM | [5] > 10 µM | [6] > 10 µM | [7] > 10 µM | [8] > 10 µM | [9] > 10 µM | [10] > 10 µM | [11] > 10 µM | [12] > 10 µM

c1ccc(OCc2nnc3n2N=C(c2ccccc2)CS3)cc1
inactive: [2] > 100 µM | [13] 23 µM | [3] > 100 µM | [14] > 100 µM | [4] > 100 µM | [5] > 100 µM | [15] 55.5 µM | [16] > 100 µM | [17] > 100 µM | [6] > 100 µM | [7] > 100 µM | [8] > 100 µM | [9] 71.6 µM | [10] > 100 µM | [18] > 100 µM | [11] 71 µM

CSC(SC)=C(C(=O)O)P(=O)(O)O
inactive: [1] > 100 µM | [2] > 100 µM | [3] > 100 µM | [14] > 100 µM | [4] > 100 µM | [5] > 100 µM | [15] > 100 µM | [16] > 100 µM | [17] > 100 µM | [6] > 100 µM | [7] > 100 µM | [8] > 100 µM | [9] > 100 µM | [10] > 100 µM | [18] > 100 µM | [11] > 100 µM

Cc1cc(-c2cccc3ccccc23)c(C#N)c(=S)n1C1OC(CO)C(O)C(O)C1O (stereo not drawn)
inactive: [1] > 100 µM | [2] > 100 µM | [3] > 100 µM | [14] > 100 µM | [4] > 100 µM | [5] > 100 µM | [16] > 100 µM | [17] 50 µM | [6] > 100 µM | [8] > 100 µM | [9] > 100 µM | [10] > 100 µM | [18] > 100 µM | [11] > 100 µM | [12] > 100 µM

CC1CN=C(Nc2ccc(F)cc2F)S1 (stereo not drawn)
inactive: [1] 75 µM | [2] > 100 µM | [13] > 100 µM | [3] > 100 µM | [14] > 100 µM | [4] > 100 µM | [5] > 100 µM | [16] > 100 µM | [7] > 100 µM | [8] > 100 µM | [9] > 100 µM | [10] > 100 µM | [18] > 100 µM | [11] > 100 µM
